The text below walks through data of PMC5433008 (BMC Neuroscience, 2017).

This test has as its system NMDA-evoked currents in cultured rat embryonic hippocampal neurons (NMDAr). The conditions noted are these: 500 µM.

Turning to TKRSSRAFRE [EAR7], the “inhibitory action on NMDA-evoked currents (control peptide)” value was “No inhibitory action”.
